In US20250353873A1, “COMPOUNDS AND METHODS FOR MODULATING APOE EXPRESSION” (Ionis Pharmaceuticals, Inc., priority 2024, published 2025):
pIC50: −log10 of the molar value. Strand notation (5' to 3'): a small letter for the sugar, then the base; units joined by * are phosphorothioate-linked, units joined directly phosphodiester-linked; [ ] holds rarer units or linkages, { } end groups; capitals alone tell only the bases. [ms] = mesyl phosphoramidate linkage; e = 2'-O-(2-methoxyethyl) (MOE); k = constrained ethyl (cEt); [5mC] = 5-methylcytosine; d = 2'-deoxy (DNA)

What follows are substances tested on human APOE RNA (assay: Dose-dependent inhibition of human APOE RNA in HepG2 cells, electroporation, 50,000 cells per well, RT-PCR normalized to GAPDH (Example 4, Tables 8-10)). Conditions: 5 nM; HepG2, electroporation, 24-hour treatment.
Type: cell-based
Experimental: Modified oligonucleotides selected from the examples above were tested at various doses in HepG2 cells. The modified oligonucleotides were tested in a series of experiments that had the same culture conditions. Each experiment is identified in separate tables below.
HepG2 cells plated at a density of 50,000 cells per well were treated by electroporation with various concentrations of modified oligonucleotide as specified in the tables below. […] APOE RNA levels were measured using the human primer probe set RTS3073 (forward sequence […], designated herein as SEQ ID NO: 7; reverse sequence CCATCAGCGCCCTCAGTT, designated herein as SEQ ID NO: 8; probe sequence […], designated herein as SEQ ID NO:9). APOE RNA levels were normalized to human GAPDH. […] Results are presented as percent APOE RNA, relative to the amount of APOE RNA in untreated control cells (UTC).
In the case of “1746812 (k[5mC]*dT[ms]dT[ms]dG[ms]kG*kT*dG[ms]dA[ms]dA[ms]dT*d[5mC]*dT*dT*dT*dA[ms]dT*dT[ms]kA*kA*kA; antisense) [Compound 1746812]”, the “APOE RNA (% UTC)” value was 105 % UTC.

Same assay, conditions: 13 nM; HepG2, electroporation, 24-hour treatment
In the case of “1746812 (k[5mC]*dT[ms]dT[ms]dG[ms]kG*kT*dG[ms]dA[ms]dA[ms]dT*d[5mC]*dT*dT*dT*dA[ms]dT*dT[ms]kA*kA*kA; antisense) [Compound 1746812]”, the “APOE RNA (% UTC)” value was 109 % UTC.

Same assay, conditions: 33 nM; HepG2, electroporation, 24-hour treatment
With “1746812 (k[5mC]*dT[ms]dT[ms]dG[ms]kG*kT*dG[ms]dA[ms]dA[ms]dT*d[5mC]*dT*dT*dT*dA[ms]dT*dT[ms]kA*kA*kA; antisense) [Compound 1746812]” the “APOE RNA (% UTC)” value was 90 % UTC.

Same assay, conditions: 82 nM; HepG2, electroporation, 24-hour treatment
In the case of “1746812 (k[5mC]*dT[ms]dT[ms]dG[ms]kG*kT*dG[ms]dA[ms]dA[ms]dT*d[5mC]*dT*dT*dT*dA[ms]dT*dT[ms]kA*kA*kA; antisense) [Compound 1746812]”, the “APOE RNA (% UTC)” value was 102 % UTC.

Same assay, conditions: 205 nM; HepG2, electroporation, 24-hour treatment
With “1746812 (k[5mC]*dT[ms]dT[ms]dG[ms]kG*kT*dG[ms]dA[ms]dA[ms]dT*d[5mC]*dT*dT*dT*dA[ms]dT*dT[ms]kA*kA*kA; antisense) [Compound 1746812]” the “APOE RNA (% UTC)” value was 86 % UTC.

Same assay, conditions: 512 nM; HepG2, electroporation, 24-hour treatment
“1746812 (k[5mC]*dT[ms]dT[ms]dG[ms]kG*kT*dG[ms]dA[ms]dA[ms]dT*d[5mC]*dT*dT*dT*dA[ms]dT*dT[ms]kA*kA*kA; antisense) [Compound 1746812]” was tested, and the “APOE RNA (% UTC)” value was 76 % UTC.

Same assay, conditions: 1,280 nM; HepG2, electroporation, 24-hour treatment
For “1746812 (k[5mC]*dT[ms]dT[ms]dG[ms]kG*kT*dG[ms]dA[ms]dA[ms]dT*d[5mC]*dT*dT*dT*dA[ms]dT*dT[ms]kA*kA*kA; antisense) [Compound 1746812]”, the “APOE RNA (% UTC)” value was 51 % UTC.

Same assay, conditions: 3,200 nM; HepG2, electroporation, 24-hour treatment
In the case of “1746812 (k[5mC]*dT[ms]dT[ms]dG[ms]kG*kT*dG[ms]dA[ms]dA[ms]dT*d[5mC]*dT*dT*dT*dA[ms]dT*dT[ms]kA*kA*kA; antisense) [Compound 1746812]”, the “APOE RNA (% UTC)” value was 31 % UTC.

Same assay, conditions: 8,000 nM; HepG2, electroporation, 24-hour treatment
In the case of “1746812 (k[5mC]*dT[ms]dT[ms]dG[ms]kG*kT*dG[ms]dA[ms]dA[ms]dT*d[5mC]*dT*dT*dT*dA[ms]dT*dT[ms]kA*kA*kA; antisense) [Compound 1746812]”, the “APOE RNA (% UTC)” value was 19 % UTC.

Same assay, conditions: 20,000 nM; HepG2, electroporation, 24-hour treatment
In the case of “1746812 (k[5mC]*dT[ms]dT[ms]dG[ms]kG*kT*dG[ms]dA[ms]dA[ms]dT*d[5mC]*dT*dT*dT*dA[ms]dT*dT[ms]kA*kA*kA; antisense) [Compound 1746812]”, the “APOE RNA (% UTC)” value was 11 % UTC.

Same assay, conditions: HepG2, electroporation, 24-hour treatment
In the case of “1746812 (k[5mC]*dT[ms]dT[ms]dG[ms]kG*kT*dG[ms]dA[ms]dA[ms]dT*d[5mC]*dT*dT*dT*dA[ms]dT*dT[ms]kA*kA*kA; antisense) [Compound 1746812]”, the pIC50 was 5.82.

The substances below were run on human APOE RNA (assay: Activity in APOE C57BL/6NTac-Apoeem7250 knock-in mice, single ICV bolus, 16 weeks (Example 12)). Conditions: cortex; single ICV bolus 300 μg; 16 weeks post treatment; normalized to mouse Ppia.
Type: in vivo
Summary of the method: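 Knock-in mice (3-4 per group) received one ICV bolus of 300 μg oligonucleotide, PBS as control. After 16 weeks, human APOE RNA in cortex and spinal cord measured by RT-qPCR, normalized to mouse Ppia, and reported as % of PBS control.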
In the case of “1736492 (e[5mC]*eTeT*eG*eG*eT*dG[ms]dA[ms]dA[ms]dT*d[5mC]*dT*dT*dT*dA[ms]dT*kT*eA*eA*eA; antisense) [Compound 1736492]”, the “APOE RNA (% control) Cortex” value was 53 % control.

Same assay, conditions: spinal cord; single ICV bolus 300 μg; 16 weeks post treatment; normalized to mouse Ppia
In the case of “1736492 (e[5mC]*eTeT*eG*eG*eT*dG[ms]dA[ms]dA[ms]dT*d[5mC]*dT*dT*dT*dA[ms]dT*kT*eA*eA*eA; antisense) [Compound 1736492]”, the “APOE RNA (% control) Spinal Cord” value was 52 % control.

Each substance was assayed on human APOE RNA (assay: Activity in APOE C57BL/6NTac-Apoeem7250 knock-in mice, single ICV bolus, 4 weeks (Example 10)). Conditions: Cortex; C57BL/6NTac-Apoeem7250 knock-in mice, single ICV bolus 300 μg, 4 weeks (Table 22).
Type: in vivo
Experimental: Modified oligonucleotides described above were tested in the APOE C57BL/6NTac-Apoeem7250 knock-in mouse model described above.
APOE C57BL/6NTac-Apoeem7250 knock-in mice were divided into groups of 2-4 mice each. Each mouse received a single ICV bolus of 300 μg of modified oligonucleotide. A group of 3-4 mice received a single ICV bolus with PBS as a negative control.
Four weeks post treatment, mice were sacrificed and RNA was extracted from cortical brain tissue and spinal cord for quantitative real-time RT-PCR analysis of RNA expression of APOE using human primer probe set RTS3073 (described herein above). APOE RNA levels were normalized to mouse Ppia. Mouse Ppia was amplified using primer probe set m_cyclo24 (described herein above). Results are presented as percent human APOE RNA relative to the amount of human APOE RNA in PBS treated animals, (% control). Each experiment is identified in separate tables below.
With “1736492 (e[5mC]*eTeT*eG*eG*eT*dG[ms]dA[ms]dA[ms]dT*d[5mC]*dT*dT*dT*dA[ms]dT*kT*eA*eA*eA; antisense) [Compound 1736492]” the “APOE RNA (% control) Cortex” value was 45 % control.

Same assay, conditions: Spinal Cord; C57BL/6NTac-Apoeem7250 knock-in mice, single ICV bolus 300 μg, 4 weeks (Table 22)
In the case of “1736492 (e[5mC]*eTeT*eG*eG*eT*dG[ms]dA[ms]dA[ms]dT*d[5mC]*dT*dT*dT*dA[ms]dT*kT*eA*eA*eA; antisense) [Compound 1736492]”, the “APOE RNA (% control) Spinal Cord” value was 46 % control.

Same assay, conditions: cortex; single ICV bolus 300 μg; 4 weeks post treatment; normalized to mouse Ppia
With “1746812 (k[5mC]*dT[ms]dT[ms]dG[ms]kG*kT*dG[ms]dA[ms]dA[ms]dT*d[5mC]*dT*dT*dT*dA[ms]dT*dT[ms]kA*kA*kA; antisense) [Compound 1746812]” the “APOE RNA (% control) Cortex” value was 68 % control.

Same assay, conditions: spinal cord; single ICV bolus 300 μg; 4 weeks post treatment; normalized to mouse Ppia
With “1746812 (k[5mC]*dT[ms]dT[ms]dG[ms]kG*kT*dG[ms]dA[ms]dA[ms]dT*d[5mC]*dT*dT*dT*dA[ms]dT*dT[ms]kA*kA*kA; antisense) [Compound 1746812]” the “APOE RNA (% control) Spinal Cord” value was 79 % control.

What follows are substances tested on human APOE RNA (assay: Dose-dependent inhibition of human APOE RNA in HepG2 cells, electroporation, 24 hours (Example 6)). Conditions: not given.
Type: cell-based
Experimental: Modified oligonucleotides selected from the examples above were tested at various doses in HepG2.
HepG2 cells plated at a density of 50,000 cells per well were treated by electroporation with various concentrations of modified oligonucleotide as specified in the tables below. […] APOE RNA levels were measured using the human primer probe set RTS3073 (described herein above). APOE RNA levels were normalized to human GAPDH. Human GAPDH was amplified using human primer probe set RTS 104 (described herein above). Results are presented as percent APOE RNA, relative to the amount of APOE RNA in untreated control cells (% UTC). The half maximal inhibitory concentration (IC50) of each modified oligonucleotide was calculated in GraphPad Prism 10 (GraphPad Software, San Diego, CA) and is also presented in the tables below.
For “1736492 (e[5mC]*eTeT*eG*eG*eT*dG[ms]dA[ms]dA[ms]dT*d[5mC]*dT*dT*dT*dA[ms]dT*kT*eA*eA*eA; antisense) [Compound 1736492]”, the pIC50 was 6.03.

Same assay, conditions: 5 nM
“1736492 (e[5mC]*eTeT*eG*eG*eT*dG[ms]dA[ms]dA[ms]dT*d[5mC]*dT*dT*dT*dA[ms]dT*kT*eA*eA*eA; antisense) [Compound 1736492]” was tested, and the “APOE RNA (% UTC)” value was 95 % UTC.

Same assay, conditions: 13 nM
“1736492 (e[5mC]*eTeT*eG*eG*eT*dG[ms]dA[ms]dA[ms]dT*d[5mC]*dT*dT*dT*dA[ms]dT*kT*eA*eA*eA; antisense) [Compound 1736492]” was tested, and the “APOE RNA (% UTC)” value was 87 % UTC.

Same assay, conditions: 33 nM
“1736492 (e[5mC]*eTeT*eG*eG*eT*dG[ms]dA[ms]dA[ms]dT*d[5mC]*dT*dT*dT*dA[ms]dT*kT*eA*eA*eA; antisense) [Compound 1736492]” was tested, and the “APOE RNA (% UTC)” value was 76 % UTC.

Same assay, conditions: 82 nM
With “1736492 (e[5mC]*eTeT*eG*eG*eT*dG[ms]dA[ms]dA[ms]dT*d[5mC]*dT*dT*dT*dA[ms]dT*kT*eA*eA*eA; antisense) [Compound 1736492]” the “APOE RNA (% UTC)” value was 82 % UTC.

Same assay, conditions: 205 nM
With “1736492 (e[5mC]*eTeT*eG*eG*eT*dG[ms]dA[ms]dA[ms]dT*d[5mC]*dT*dT*dT*dA[ms]dT*kT*eA*eA*eA; antisense) [Compound 1736492]” the “APOE RNA (% UTC)” value was 71 % UTC.

Same assay, conditions: 512 nM
In the case of “1736492 (e[5mC]*eTeT*eG*eG*eT*dG[ms]dA[ms]dA[ms]dT*d[5mC]*dT*dT*dT*dA[ms]dT*kT*eA*eA*eA; antisense) [Compound 1736492]”, the “APOE RNA (% UTC)” value was 52 % UTC.

Same assay, conditions: 1,280 nM
With “1736492 (e[5mC]*eTeT*eG*eG*eT*dG[ms]dA[ms]dA[ms]dT*d[5mC]*dT*dT*dT*dA[ms]dT*kT*eA*eA*eA; antisense) [Compound 1736492]” the “APOE RNA (% UTC)” value was 52 % UTC.

Same assay, conditions: 3,200 nM
“1736492 (e[5mC]*eTeT*eG*eG*eT*dG[ms]dA[ms]dA[ms]dT*d[5mC]*dT*dT*dT*dA[ms]dT*kT*eA*eA*eA; antisense) [Compound 1736492]” was tested, and the “APOE RNA (% UTC)” value was 41 % UTC.

Same assay, conditions: 8,000 nM
“1736492 (e[5mC]*eTeT*eG*eG*eT*dG[ms]dA[ms]dA[ms]dT*d[5mC]*dT*dT*dT*dA[ms]dT*kT*eA*eA*eA; antisense) [Compound 1736492]” was tested, and the “APOE RNA (% UTC)” value was 15 % UTC.

Same assay, conditions: 20,000 nM
In the case of “1736492 (e[5mC]*eTeT*eG*eG*eT*dG[ms]dA[ms]dA[ms]dT*d[5mC]*dT*dT*dT*dA[ms]dT*kT*eA*eA*eA; antisense) [Compound 1736492]”, the “APOE RNA (% UTC)” value was 20 % UTC.
